Measured values from PMC3501490 (PLoS ONE, 2012).
Where no end group is shown, it is not given here. [ ]: non-standard residue; d: D form. pY = N[C@@H](Cc1ccc(OP(=O)(O)O)cc1)C(=O)O

Key:
[1] = test system: washed human platelets (collagen); experiment: Light transmission aggregometry of TAT-peptide-loaded platelets, collagen; format: cell-based; settings: for effect on EC50 / sensitivity to collagen: washed human platelets, TAT peptide loading
Description: (§1) Whole blood was taken from healthy volunteers and collected into 50 ml syringes containing 5 ml acid citrate-dextrose (ACD) in accordance with procedures approved by the Local Research Ethics Committee (Ref: 07/Q1603/17). Platelet-rich plasma (PRP) was isolated by centrifugation at 200 g for 10 minutes at room temperature. PRP was pooled and 10 µg PGI2 was added before centrifugation at 1000 g for 10 minutes at room temperature. Platelets were resuspended in 1 ml Tyrodes buffer (134 mM NaCl, 0.34 mM Na2HPO4, 2.9 mM KCl, 12 mM NaHCO3, 20 mM HEPES, 5 mM glucose, 1 mM MgCl2, pH 7.3) pre-warmed to 30°C and 150 µl ACD. The volume was adjusted to 25 ml with Tyrodes buffer, followed by 3 ml ACD and 1.25 µg PGI2. Cells were centrifuged at 1000 g for 10 minutes at room temperature and the resultant cell pellet was resuspended in 1 ml pre-warmed Tyrodes buffer before adjusting the volume to a final cell density of 4×10^8 cells/ml (aggregations) or 2×10^9 cells/ml (peptide pull downs). Where appropriate, 1 mM EGTA, 10 µM indomethacin and 2 U/ml apyrase were added to inhibit aggregations (referred to as non-aggregating conditions).
(§2) Fluorescein-labelled, TAT-G6B-b peptides were synthesised by Peptide Protein Research Ltd (Hampshire, U.K.). Peptides were either unphosphorylated, or phosphorylated at both ITIMs as follows: Dual phosphorylated peptide – FLUO- […]*[…]*AVVV or unphosphorylated control peptide (lacking tyrosine phosphorylation) - FLUO- […]. TAT sequences are underlined and phosphorylated tyrosines marked with an asterisk. Peptides were loaded into washed platelets by incubation with 10 µM peptide for 15 minutes at 30°C, after which they were assessed by light transmission aggregometry. Peptide loading conditions were optimised and verified by flow cytometry.
(§3) Washed human platelets were loaded with TAT-G6B-b peptides (either dual phosphorylated or unphosphorylated) and changes in CRP efficacy determined by light transmission aggregometry. […] Thrombin-mediated activation was unaffected (data not shown). […] Peptide loading was verified by flow cytometry (Figure 9C and 9D.

[2] = test system: washed human platelets (CRP); experiment: Light transmission aggregometry of TAT-peptide-loaded platelets, CRP; format: cell-based; settings: for effect on EC50 / sensitivity to CRP: washed human platelets, TAT peptide loading
Description: as §1, §2, §3

[3] = test system: washed human platelets (thrombin); experiment: Activation of TAT-peptide-loaded platelets, thrombin; format: cell-based; settings: platelets loaded with 10 µM peptide, 15 min, 30°C; data not shown
Description: Whole blood was taken from healthy volunteers and collected into 50 ml syringes containing 5 ml acid citrate-dextrose (ACD) in accordance with procedures approved by the Local Research Ethics Committee (Ref: 07/Q1603/17). Platelet-rich plasma (PRP) was isolated by centrifugation at 200 g for 10 minutes at room temperature. PRP was pooled and 10 µg PGI2 was added before centrifugation at 1000 g for 10 minutes at room temperature. Platelets were resuspended in 1 ml Tyrodes buffer (134 mM NaCl, 0.34 mM Na2HPO4, 2.9 mM KCl, 12 mM NaHCO3, 20 mM HEPES, 5 mM glucose, 1 mM MgCl2, pH 7.3) pre-warmed to 30°C and 150 µl ACD. The volume was adjusted to 25 ml with Tyrodes buffer, followed by 3 ml ACD and 1.25 µg PGI2. […]
Fluorescein-labelled, TAT-G6B-b peptides were synthesised by Peptide Protein Research Ltd (Hampshire, U.K.). […] Peptides were loaded into washed platelets by incubation with 10 µM peptide for 15 minutes at 30°C, after which they were assessed by light transmission aggregometry. […]
Washed human platelets were loaded with TAT-G6B-b peptides (either dual phosphorylated or unphosphorylated) and changes in CRP efficacy determined by light transmission aggregometry. […]

[4] = biological target: T1, N-terminal SH2 domain of SHP-2 (Homo sapiens, UniProt Q06124); experiment: SPR (BIAcore 3000), single N-terminal SH2 domain of SHP-2; format: binding; settings: equilibrium binding, single site fitting, HBS pH 7.4, 37°C, 10 µl/min, read-out: KD
T1 construct: SHP-2 (N)SH2 (His-tag) (OMC #3912); His-tag; host or cells: E. coli BL21(DE3)
T1 sequence (Q06124 6-102 limits assumed): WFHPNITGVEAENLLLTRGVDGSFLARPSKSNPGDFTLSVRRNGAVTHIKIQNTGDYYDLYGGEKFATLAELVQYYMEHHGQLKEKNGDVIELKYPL
Description: (§4) These proteins were expressed in BL21(DE3) cells (Invitrogen) induced with 1 mM IPTG for 4 hours at 37°C. Bacteria were pelleted and washed in PBS/0.5 M NaCl prior to sonication in PBS/0.5 M NaCl, in the presence of protease inhibitor cocktail (Complete, EDTA-free, Roche). Soluble and insoluble fractions were separated by centrifugation at 30,000 g for 60 minutes. Soluble fractions containing tagged proteins were incubated for 1 hour at 4°C with end-over-end mixing in the presence of washed Ni-Sepharose (GE Lifesceinces, Little Chalfont, U.K.) supplemented with 40 mM imidazole or Amylose resin (NEB, Herts, U.K). Proteins were eluted according to the manufacturer's instructions and purified by size exclusion chromatography on an AKTApurifier (GE Lifesciences, Little Chalfont, U.K).
Experiments were conducted on a BIAcore™ 3000 in HBS buffer (0.01 M HEPES, pH 7.4, containing 0.15 M NaCl, 3 mM EDTA, and 0.005% v/v P-20, GE Life Sciences, Amersham, UK). Streptavidin was coupled to a research grade CM5 chip (GE Life Sciences, Amersham, UK) as previously described, [13]. Protein-peptide interactions were carried out a rate of 10 µl/min at a constant temperature of 37°C to more accurately reflect physiological conditions. Biotinylated peptides were bound to the streptavidin-coated CM5 chips at 37°C to between 25–50 RU [14]. Purified monomeric SH2 domains were passed over the immobilised peptides at a range of concentrations. Anti-phosphotyrosine monoclonal antibody (Sigma, Poole, U.K.) was passed over the chip to saturation at the end of each experiment to verify peptide coverage on the chip. Binding affinities for the single ITIM/ITSM peptides were determined by plotting equilibrium binding measurements (RU) against SH2 domain protein concentration (Origin 8, OriginLab, MA, USA). KD was defined as the concentration of SH2 protein that gave half maximal binding to the peptide. […] KD was determined as Koff/Kon, which were determined using both GraphPad Prism 5.0 (GraphPad, La Jolla, CA, USA) and BIAevaluation Software (GE Life Sciences, Amersham,UK).

[5] = biological target: T2, SHP-1 tandem (N+C) SH2 domains (Homo sapiens, UniProt P29350); experiment: SPR (BIAcore 3000), SHP-1 tandem (N+C) SH2 domains; format: binding
T2 construct: host or cells: E. coli BL21(DE3)
T2 sequence (P29350 1-213 limits assumed): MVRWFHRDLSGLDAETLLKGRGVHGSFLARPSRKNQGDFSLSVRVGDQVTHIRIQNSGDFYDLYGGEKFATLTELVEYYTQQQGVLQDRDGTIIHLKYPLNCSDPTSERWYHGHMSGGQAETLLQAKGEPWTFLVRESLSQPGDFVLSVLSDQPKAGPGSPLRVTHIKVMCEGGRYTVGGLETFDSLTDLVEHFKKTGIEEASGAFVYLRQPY
T2 sequence (O95866 182-241 partner limits assumed): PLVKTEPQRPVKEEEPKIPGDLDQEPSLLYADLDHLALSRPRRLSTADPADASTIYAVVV
Description: as §4
Experiments were conducted on a BIAcore™ 3000 in HBS buffer (0.01 M HEPES, pH 7.4, containing 0.15 M NaCl, 3 mM EDTA, and 0.005% v/v P-20, GE Life Sciences, Amersham, UK). […] Binding affinities for the single ITIM/ITSM peptides were determined by plotting equilibrium binding measurements (RU) against SH2 domain protein concentration (Origin 8, OriginLab, MA, USA). […] KD was determined as Koff/Kon, which were determined using both GraphPad Prism 5.0 (GraphPad, La Jolla, CA, USA) and BIAevaluation Software (GE Life Sciences, Amersham,UK). […]

Syk = biological target: T3, Syk (Homo sapiens, UniProt P43405); experiment: SPR (BIAcore 3000), Syk SH2 domains; format: binding; settings: HBS pH 7.4, 37°C, n = 3
T3 construct: made in house
Description: Experiments were conducted on a BIAcore™ 3000 in HBS buffer (0.01 M HEPES, pH 7.4, containing 0.15 M NaCl, 3 mM EDTA, and 0.005% v/v P-20, GE Life Sciences, Amersham, UK). Streptavidin was coupled to a research grade CM5 chip (GE Life Sciences, Amersham, UK) as previously described, [13]. Protein-peptide interactions were carried out a rate of 10 µl/min at a constant temperature of 37°C to more accurately reflect physiological conditions. Biotinylated peptides were bound to the streptavidin-coated CM5 chips at 37°C to between 25–50 RU [14]. Purified monomeric SH2 domains were passed over the immobilised peptides at a range of concentrations. Anti-phosphotyrosine monoclonal antibody (Sigma, Poole, U.K.) was passed over the chip to saturation at the end of each experiment to verify peptide coverage on the chip. Binding affinities for the single ITIM/ITSM peptides were determined by plotting equilibrium binding measurements (RU) against SH2 domain protein concentration (Origin 8, OriginLab, MA, USA). KD was defined as the concentration of SH2 protein that gave half maximal binding to the peptide. For the 60-mer peptides, SH2 domains were passed over the chip surface at 50 µl/min. KD was determined as Koff/Kon, which were determined using both GraphPad Prism 5.0 (GraphPad, La Jolla, CA, USA) and BIAevaluation Software (GE Life Sciences, Amersham,UK). […]

[6] = biological target: T4, SHP-2 tandem (N+C) SH2 domains (Homo sapiens, UniProt Q06124); experiment: SPR (BIAcore 3000), SHP-2 tandem (N+C) SH2 domains; format: binding; settings: kinetic (koff/kon), single site model, HBS pH 7.4, 37°C, 50 µl/min, mean, n = 5, SEM
T4 construct: SHP-2 (N+C)SH2 domains (His-tag) (3911); His-tag; host or cells: E. coli BL21(DE3)
T4 sequence (Q06124 1-216 limits assumed): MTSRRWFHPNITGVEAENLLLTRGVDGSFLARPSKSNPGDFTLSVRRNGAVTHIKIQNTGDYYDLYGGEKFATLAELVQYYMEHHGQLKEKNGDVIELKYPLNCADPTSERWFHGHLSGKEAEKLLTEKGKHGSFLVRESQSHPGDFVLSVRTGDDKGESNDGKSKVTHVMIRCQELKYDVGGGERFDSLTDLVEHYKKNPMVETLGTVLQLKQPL
T4 sequence (O95866 182-241 partner limits assumed): T2 sequence (O95866 182-241 partner limits assumed)
Description: Experiments were conducted on a BIAcore™ 3000 in HBS buffer (0.01 M HEPES, pH 7.4, containing 0.15 M NaCl, 3 mM EDTA, and 0.005% v/v P-20, GE Life Sciences, Amersham, UK). Streptavidin was coupled to a research grade CM5 chip (GE Life Sciences, Amersham, UK) as previously described [12], [13]. Protein-peptide interactions were carried out a rate of 10 µl/min at a constant temperature of 37°C to more accurately reflect physiological conditions. Biotinylated peptides were bound to the streptavidin-coated CM5 chips at 37°C to between 25–50 RU [14]. Purified monomeric SH2 domains were passed over the immobilised peptides at a range of concentrations. Anti-phosphotyrosine monoclonal antibody (Sigma, Poole, U.K.) was passed over the chip to saturation at the end of each experiment to verify peptide coverage on the chip. Binding affinities for the single ITIM/ITSM peptides were determined by plotting equilibrium binding measurements (RU) against SH2 domain protein concentration (Origin 8, OriginLab, MA, USA). […] For the 60-mer peptides, SH2 domains were passed over the chip surface at 50 µl/min. KD was determined as Koff/Kon, which were determined using both GraphPad Prism 5.0 (GraphPad, La Jolla, CA, USA) and BIAevaluation Software (GE Life Sciences, Amersham,UK).
We kinetically determined the binding affinity (KD = koff/kon) by SPR at physiological temperatures.

SHP-2 = experiment: Peptide pull down from platelet lysate, SHP-2; format: binding; settings: human platelet lysate, Western blotting; 4°C, 30 min; n = 3
Description: (§5) Forty micrograms of peptide were coupled to 50 µl of Streptactin beads (50% slurry) for 30 minutes at 4°C with end-over-end mixing, washed twice with 1 ml PBS and resuspended in 100 µl of modified Tyrodes buffer. Platelets were resuspended in modified Tyrodes buffer at a concentration of 2×10^9 cells/ml under non-aggregating conditions (10 µM indomethacin, 1 mM EGTA and 2 U/ml apyrase). Cells were activated with 1 ug/ml CRP for 90 seconds under stirring, but non-aggregating conditions, before reactions were terminated by the addition of 500 µl 2× NP40 lysis buffer (150 mM NaCl, 10 mM Tris pH 7.5, 1 mM EGTA, 1 mM EDTA, 1% NP-40) with inhibitors (Roche Complete mini protease inhibitor cocktail, 5 mM NaF, 5 mM NaVO4, 250 nM beta-glycerophosphate) and placed on ice. Lysates were pooled and pre-cleared as a batch with 200 µl streptactin beads (50% slurry). Non-specific interactions were then removed by centrifugation at 4,750 g for 15 minutes at 4°C. Pre-cleared lysates were incubated with 50 µl peptide/bead conjugate (50% slurry) at 4°C for 30 minutes with end-over-end mixing. […]
(§6) Although likely that these interactions are direct, this has not yet been conclusively shown. […] Peptide associated material was separated by SDS-PAGE and assessed for the presence of SHP-1 and SHP-2 by Western blotting, both of which were clearly identified (Figure 1C).

SHP-1 = experiment: Peptide pull down from platelet lysate, SHP-1; format: binding; settings: human platelet lysate, Western blotting; 4°C, 30 min; n = 3
Description: as §5, §6

[7] = 10 µM peptide, 15 min, 30°C, vs vehicle control
[8] = listed as G6B-b dual phosphorylated peptide

## FLUO- GRKKRRQRRRPQDLDQEPSLLY*ADLDHLALSRPRRLSTADPADASTIY*AVVV [dual phosphorylated G6B-b TAT-peptide, Fluorescein-labelled TAT-G6B-b peptide phosphorylated at both ITIMs]
[1]; [7]
  fold increase in EC50 of collagen: 2.5 fold
[1]
  effect on EC50 / sensitivity to collagen: can reduce the EC50 for both CRP and collagen
[1]; [8]
  effect on EC50 / sensitivity to collagen: reduces platelet sensitivity to GPVI agonists
[2]; [7]
  fold increase in EC50 of CRP: ~1.65 fold
[2]
  effect on EC50 / sensitivity to CRP: can reduce the EC50 for both CRP and collagen
[2]; [8]
  effect on EC50 / sensitivity to CRP: reduces platelet sensitivity to GPVI agonists
[3]
  thrombin-mediated activation: unaffected

## PLVKTEPQRPVKEEEPKIPGDLDQEPSLL[pY]ADLDHLALSRPRRLSTADPADASTI[pY]AVVV [dual phosphopeptide]
[4]
  Kd: 130 nM
[5]; 37°C, dual peptide, read-out: Koff (dissociation rate)
  Koff: 0.01 s⁻¹
[5]; kinetic (koff/kon), single site model, HBS pH 7.4, 37°C, 50 µl/min, mean, n = 5, SEM, read-out: binding affinity (KD)
  Kd: 35.3 ± 4.3 nM
Syk
  Kd: ~25000 nM
[6]
  Kd: 0.48 ± 0.09 nM

## unphosphorylated control peptides: biotinylated 60-mer G6B-b peptide (182 to 241), unphosphorylated (PLVKTEPQRPVKEEEPKIPGDLDQEPSLLYADLDHLALSRPRRLSTADPADASTIYAVVV; also: biotinylated (end not given here))
SHP-2
  association: No SHP-1 or SHP-2 bound
SHP-1
  association: No SHP-1 or SHP-2 bound
